Experimental data reported in publication PMC10472861, “Potent inhibition of human tyrosinase inhibitor by verproside from the whole plant of Pseudolysimachion rotundum var. subintegrum” (Journal of Enzyme Inhibition and Medicinal Chemistry, 2023).
“Also recorded” adds a separate entry of the source.

What was measured:
[1] = biological target: T1, Mushroom tyrosinase (mTyr) (Agaricus bisporus, UniProt C7FF04); test: Mushroom tyrosinase inhibition, L-tyrosine substrate (monophenolase); format: biochemical; details: for inhibition at 100 µM: read-out: Mushroom Tyrosinase L-Tyrosine 100 µM inhibition (%); for Type of inhibition (monophenolase): L-tyrosine, Lineweaver-Burk and Dixon plots
T1 construct: purchased Sigma Chemical Co. T3824-50KU
Target sequence in this assay (C7FF04 1-392): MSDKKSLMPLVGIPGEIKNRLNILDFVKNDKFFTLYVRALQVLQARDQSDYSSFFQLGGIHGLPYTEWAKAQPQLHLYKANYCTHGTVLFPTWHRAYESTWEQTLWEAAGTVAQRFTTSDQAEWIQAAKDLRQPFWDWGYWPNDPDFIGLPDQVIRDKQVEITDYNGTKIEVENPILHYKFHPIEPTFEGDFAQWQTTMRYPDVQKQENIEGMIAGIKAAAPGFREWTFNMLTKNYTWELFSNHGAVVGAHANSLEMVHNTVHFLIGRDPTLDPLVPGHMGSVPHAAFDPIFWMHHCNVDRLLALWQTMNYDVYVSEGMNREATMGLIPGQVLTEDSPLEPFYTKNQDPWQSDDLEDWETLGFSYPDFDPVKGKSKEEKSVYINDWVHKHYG

[2] = biological target: T1, Mushroom tyrosinase (mTyr); test: Mushroom tyrosinase inhibition, L-DOPA substrate (diphenolase); format: biochemical
Target sequence in this assay (C7FF04 1-392 limits assumed): as the sequence (C7FF04 1-392) above

mushroom tyrosinase [3] = test: Affinity-based ultrafiltration UPLC-QTOF-MS binding experiment; details: UPLC-QTOF-MS peak area in 1000 ppm extract, not exposed to enzyme
Procedure: (§1) Affinity-based ultrafiltration was performed as previously described by Zuo et al. and Wang et al.[15]^,[19]^,[23]. First, […] of 0.25 M phosphate buffer (pH 6.8) with 10% glycerol was added to 13 μL of mushroom tyrosinase (144 U in the same phosphate buffer solution) and 100 μL of 1000 mg/mL extract (the test solution was consistently 3.3%). The final concentration of the extract was adjusted to 1000 ppm. The mixture was incubated for 15 or 50 min at 37 °C on a plate shaker. Then, the sample was centrifuged at 13,000 rpm for 20 min, and the supernatant was collected for analysis. The supernatant solution was filtered through a membrane (PTFE 0.2 μm, hydrophobic, Advantec, Japan), and 2 μL of each solution was injected for UPLC-PDA-QTOF-MS analysis.
(§2) The compounds from the P. rotundum var. subintegrum extract were analysed by UPLC-PDA-ESI-QTOF-MS. […] MS was performed in negative ion mode ([M − H]^−). N2 was used as the desolvation gas, the desolvation temperature was set to 350 °C at a flow rate of 400 L/h with a source temperature of 100 °C. The capillary and cone voltages were set to 2300 and 50 V, respectively. The data for each sample were collected with a scan time of 0.25 s and a 0.01 s interscan delay. Exact MS, MS/MS, and elemental analysis were confirmed using MassLynx software incorporated into the Waters instrument.

mushroom tyrosinase [4] = biological target: T2, mushroom tyrosinase (Agaricus bisporus, UniProt C7FF04); test: as above; details: for after tyrosinase (area): UPLC-QTOF-MS peak area in 1000 ppm extract after incubation with mTyr; for Relative metabolite intensity upon treatment with mTyr: extract treated with mTyr, 15 min preincubation
T2 construct: purchased Sigma Chemical Co. T3824-50KU
T2 sequence (C7FF04 1-392): as above
Procedure: as §1, §2

[5] = biological target: T3, recombinant human tyrosinase (hTyr) (Homo sapiens, UniProt P14679); test: Human tyrosinase inhibition, L-DOPA substrate; format: biochemical
T3 construct: His-tag; purchased Enzo Life Sciences BML-SE535-0100
T3 sequence (P14679 19-529): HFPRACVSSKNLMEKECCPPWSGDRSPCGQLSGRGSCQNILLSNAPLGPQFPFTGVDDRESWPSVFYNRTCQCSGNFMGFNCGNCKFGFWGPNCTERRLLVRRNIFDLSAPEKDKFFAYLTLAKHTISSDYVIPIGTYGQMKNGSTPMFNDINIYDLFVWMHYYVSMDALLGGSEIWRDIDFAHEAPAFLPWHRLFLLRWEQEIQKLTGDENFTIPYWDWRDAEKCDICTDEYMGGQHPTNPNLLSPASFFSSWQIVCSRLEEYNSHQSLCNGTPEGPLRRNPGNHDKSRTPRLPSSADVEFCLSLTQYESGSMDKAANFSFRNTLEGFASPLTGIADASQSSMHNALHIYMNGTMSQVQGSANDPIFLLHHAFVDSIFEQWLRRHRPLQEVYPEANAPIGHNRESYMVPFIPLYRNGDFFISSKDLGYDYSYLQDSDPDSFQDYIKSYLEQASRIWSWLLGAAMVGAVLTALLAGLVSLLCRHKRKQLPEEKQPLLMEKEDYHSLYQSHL
Procedure: The enzymatic activities of tyrosinase were tested in vitro with the substrates and inhibitors known to interact with mushroom and mammalian tyrosinases (http://www.brenda-enzymes.info). The Michaelis-Menten constant (Km) of proteins was calculated from Lineweaver-Burk plots for 1/V0 versus 1/[substrate]. Mushroom tyrosinase (mTyr, EC 1.14.18.1, Sigma Chemical Co., T3824-50KU) was used as described previously[9] with some modifications with either 3,4-Dihydroxy-L-phenylalanine (L-DOPA, D9628-5G) or L-tyrosine (T3754-50G) as the substrate. In the spectrophotometric experiments, the initial velocity (vi) of enzymatic activity was monitored by observing dopachrome formation at 475 nm with a UV–vis spectrophotometer (SpectraMax M4, Molecular Devices, Sunnyvale, CA, USA) at 37 °C. The reaction was performed in a 96-well plate. All samples were first dissolved in dimethyl sulfoxide (DMSO) at a concentration of 2 mM. […] The activity of recombinant human tyrosinas (hTyr, His-tag, Enzo® Life Sciences, NY, USA, Cat. No. BML-SE535-0100) was determined using L-DOPA as a substrate, and the procedure involved a previously described absorption assay. […] The reaction was incubated for 10 min at 37 °C and was monitored at 475 nm for dopachrome formation on a SpectraMax M4 multimode detection platform (Molecular Devices). […]

B16F10 cells = test: CCK-8 cell viability assay, B16F10; format: cell-based, murine; details: 48 h
Procedure: (§3) The B16F10 melanoma and Melan-A normal murine melanocyte cells were purchased from the American Type Culture Collection (ATCC), respectively. The B16F10 cells were cultured in complete Dulbecco's Modified Eagle's Medium (DMEM high glucose, Gibco) supplemented with 10% (v/v) Fetal Bovine Serum (FBS, Gibco, USA), 100 U/mL penicillin, 50 μg/ml streptomycin. The Melan-A cells were cultured in RPMI -1640 medium supplemented with 10% FBS, 2 mM L -glutamine, 200 nM 12 -o-tetradecanoyl phorbol -13-acetate (Sigma, USA), 100 U/mL penicillin, 50 μ g/ml streptomycin, and grown in a humidified atmosphere containing 5% CO 2 in ai r at 37°C.
(§4) The cells were seeded in 96 -well plates at a density of 5 × 10^3 cells/well in cultured medium. The cells were treated with the corresponding concentrations of verproside for 48 h. Cell viability was measured in triplicate using a Cell Counting Kit -8 (CCK -8; Dojindo Molecular Technologies, Rockville, MD, USA) . Absorbance was determined using an Epoch microplate reader (BioTek Instruments, Winooski, VT, USA, #CK04) and calculated as a relative percentage (%) of the control […]
(§5) Figure S4 . The cell viability by verproside in B16F10 and Melna -A cells. (A) CCK -8 assays in B16F10 cells. (B) CCK -8 assays in Melna -A cells.
(§6) (1 picture or pasted object on this page, not shown here)

[6] = biological target: T3, recombinant human tyrosinase (hTyr); test: Human tyrosinase inhibition, L-tyrosine substrate; format: biochemical
mushroom tyrosinase [7] = biological target: T2, mushroom tyrosinase; test: Affinity-based time-dependent assay (slow-binding kinetics); format: biochemical; details: for Time dependence of inhibition: mushroom tyrosinase, L-tyrosine
Procedure: Time-dependent assays were carried out using 144 U of mushroom tyrosinase and L-tyrosine as the substrate in 0.25 M phosphate buffer (pH 6.8) at 30 °C. […] The data were analysed using a nonlinear regression program [SigmaPlot (SPCC Inc., Chicago, IL)] to give the individual parameters for each curve; vi (initial velocity), vs (steady–state velocity), kobs (apparent first–order rate constant for the transition from vi to vs), A (intensity), A0 (included to correct any possible deviation in the baseline), and Ki^app (apparent Ki) according to Equations. 2–4[26–28]: (2) A=vst + (vi–vs)[1 – exp (–kobst)]/kobs (3) v/v0= exp(−kobst) (4) kobs=k6+ [(k5 × [I])/(Ki^app + [I])]

Melan-A cells = test: CCK-8 cell viability assay, Melan-A; format: cell-based, murine; details: 48 h
Procedure: as §3, §4, §5, §6

[8] = mTyr, L-tyrosine substrate (monophenolase), read-out: Mushroom Tyrosinase L-Tyrosine IC50
[9] = mTyr, L-DOPA substrate, read-out: Mushroom Tyrosinase L-DOPA IC50

Structure (SMILES)	IC50 [1, 8] [µM]	inhibition at 100 µM [1] [%]	IC50 [2, 9] [µM]	Control (area) (mushroom tyrosinase [3])	after tyrosinase (area) (mushroom tyrosinase [4])	Relative metabolite intensity upon treatment with mTyr (mushroom tyrosinase [4])	other results
COc1ccc(C(=O)OC2C3C=COC(OC4OC(CO)C(O)C(O)C4O)C3C3(CO)OC23)cc1OC (centres unmarked) [6-O-Veratroyl catalpol (9), 6-O-Veratroyl catalpol]	> 200	6.1	> 200	15756	11932	–	–
O=C(O[C@H]1[C@@H]2C=CO[C@@H](O[C@@H]3O[C@H](CO)[C@@H](O)[C@H](O)[C@H]3O)[C@@H]2[C@@]2(CO)O[C@@H]12)c1ccc(O)cc1 [Catalposide (3), Catalposide]	> 200	9.9	> 200	26121	21250	–	–
COc1ccc(C(=O)OC2C3C=COC(OC4OC(CO)C(O)C(O)C4O)C3C3(CO)OC23)cc1O (centres unmarked) [Isovanillyl catapol (7), Isovanillyl catapol]	> 200	10.1	> 200	12844	8093	–	–
O=C(OC1C2C=COC(OC3OC(CO)C(O)C(O)C3O)C2C(O)(CO)C1Cl)c1ccc(O)c(O)c1 (centres unmarked) [Longifolioside A (2), Longifolioside A]	193 ± 10.5	36	> 200	10677	3852	significantly reduced	–
COc1ccc(/C=C/C(=O)O[C@H]2[C@@H]3C=CO[C@@H](O[C@@H]4O[C@H](CO)[C@@H](O)[C@H](O)[C@H]4O)[C@@H]3[C@@]3(CO)O[C@@H]23)cc1O [Minecoside (8), Minecoside]	132 ± 8.3	41.7	> 200	976	465	–	–
COc1cc(C(=O)O[C@H]2[C@@H]3C=CO[C@@H](O[C@@H]4O[C@H](CO)[C@@H](O)[C@H](O)[C@H]4O)[C@@H]3[C@@]3(CO)O[C@@H]23)ccc1O [Picroside II (5), Picroside II]	–	5.3	–	17798	12194	–	IC50 [1]: > 200 µM; IC50 [2]: > 200 µM
O=C(OC1C2CC3OCC(O)(C1Cl)C2C(OC1OC(CO)C(O)C(O)C1O)O3)c1ccc(O)c(O)c1 (centres unmarked) [Piscroside C (6), Piscroside C]	> 200	6.7	> 200	44999	22171	–	–
O=C(/C=C/c1ccc(O)c(O)c1)O[C@@H]1C2C=CO[C@H](O[C@@H]3O[C@H](CO)[C@@H](O)[C@H](O)[C@H]3O)C2[C@]2(CO)O[C@H]12 (some centres unmarked) [Verminoside (4), Verminoside]	> 200	8.9	> 200	16481	2886	significantly reduced	–
O=C(OC1C2C=COC(OC3OC(CO)C(O)C(O)C3O)C2C2(CO)OC12)c1ccc(O)c(O)c1 (centres unmarked) [Verproside (1), Verproside]	31.2 ± 2.1	98.4	177 ± 33.1	112306	61907	significantly reduced	Ki ([1]; mTyr, L-tyrosine (monophenolase), read-out: Ki (inhibition constant)): 5.1 µM; Type of inhibition (monophenolase) ([1]; mTyr): competitive inhibition; Type of inhibition (monophenolase) ([1]; mTyr, listed as verproside): competitive; IC50 [5]: 843 µM; Cell viability (B16F10 cells): did not significantly affect cell viability; IC50 ([6]; hTyr, L-tyrosine substrate): 197 µM; Efficacy relative to positive control kojic acid in hTyr ([6]; ratio of hTyr IC50 values, kojic acid / verproside): 5.6 fold; k5 (mushroom tyrosinase [7]; fit of kobs to Equation (4)): 0.04496 s⁻¹; k6 (mushroom tyrosinase [7]; fit of kobs to Equation (4)): 0.00001103 s⁻¹; Ki (mushroom tyrosinase [7]; fit of kobs to Equation (4), read-out: Ki^app (apparent Ki)): 2400 µM; Time dependence of inhibition (mushroom tyrosinase [7]; listed as verproside): time-dependent; also recorded: slow-binding; Time dependence of inhibition (mushroom tyrosinase [7]; listed as verproside (1)): time-dependent inhibition; Type of inhibition (diphenolase) ([2]; mTyr diphenolase activity): competitive inhibition; Cell viability (Melan-A cells): did not significantly affect cell viability
